What follows are compounds tested against Substance-P receptor (Homo sapiens, UniProt P25103) (assay: Binding affinity at human Tachykinin receptor 1 expressed in CHO cells by [125 I]Trp8-substance P displacement.).
Type: cell-based

Chain of Substance-P receptor (P25103 whole entry): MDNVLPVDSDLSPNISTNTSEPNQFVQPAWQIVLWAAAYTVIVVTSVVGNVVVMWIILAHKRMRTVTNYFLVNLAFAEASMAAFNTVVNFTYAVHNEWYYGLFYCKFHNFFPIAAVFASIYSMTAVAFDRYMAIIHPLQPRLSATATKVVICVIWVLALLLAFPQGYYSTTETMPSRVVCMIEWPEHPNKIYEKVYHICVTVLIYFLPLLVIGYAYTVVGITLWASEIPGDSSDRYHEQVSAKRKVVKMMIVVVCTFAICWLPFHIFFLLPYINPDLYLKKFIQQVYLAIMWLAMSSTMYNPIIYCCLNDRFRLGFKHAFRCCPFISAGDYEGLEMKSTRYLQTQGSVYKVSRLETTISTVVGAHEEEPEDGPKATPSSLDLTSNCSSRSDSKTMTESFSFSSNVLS

| SMILES | IC50 |
| --- | --- |
| CN1C(=O)N(Cc2cc(C(F)(F)F)cc(C(F)(F)F)c2)C(=O)C1Cc1c[nH]c2ccccc12 (centres undefined) | 153 nM |
| O=C1CNC(Cc2c[nH]c3ccccc23)CN1Cc1cc(C(F)(F)F)cc(C(F)(F)F)c1 (centres undefined) | 243 nM |
| FC(F)(F)c1cc(CN2CCNC(Cc3c[nH]c4ccccc34)C2)cc(C(F)(F)F)c1 (centres undefined) | 567 nM |
| O=C1OC(Cc2c[nH]c3ccccc23)C(=O)N1Cc1cccc(C(F)(F)F)c1 (centres undefined) | 2670 nM |
| O=C1NC(Cc2c[nH]c3ccccc23)C(=O)N1Cc1cc(C(F)(F)F)cc(C(F)(F)F)c1 (centres undefined) | 317 nM |
| O=C1OC(Cc2c[nH]c3ccccc23)C(=O)N1Cc1cc(F)cc(F)c1 (centres undefined) | 4280 nM |
| O=C1OC(Cc2c[nH]c3ccccc23)C(=O)N1Cc1cc(C(F)(F)F)cc(C(F)(F)F)c1 (racemic) | 22 nM |
| O=C1OC(Cc2c[nH]c3ccccc23)C(=O)N1Cc1cc(C(F)(F)F)cc(C(F)(F)F)c1 (single isomer, unassigned; (-)) | 26 nM |

More lines, in order of falling IC50, values ahead:

| IC50 | SMILES |
| --- | --- |
| 7370 nM | COc1cc(CN2C(=O)OC(Cc3c[nH]c4ccccc34)C2=O)cc(OC)c1 (centres undefined) |
| 683 nM | Cc1cc(C)cc(CN2C(=O)OC(Cc3c[nH]c4ccccc34)C2=O)c1 (centres undefined) |
| 400 nM | O=C1NC(Cc2c[nH]c3ccccc23)CN(Cc2cc(C(F)(F)F)cc(C(F)(F)F)c2)C1=O (centres undefined) |
| 310 nM | O=C1C(Cc2c[nH]c3ccccc23)N(Cc2ccccc2)C(=O)N1Cc1cc(C(F)(F)F)cc(C(F)(F)F)c1 (centres undefined) |
| 273 nM | O=C1OC(Cc2c[nH]c3ccccc23)C(=O)N1Cc1cc(Cl)cc(Cl)c1 (centres undefined) |
| 267 nM | O=C1NC(Cc2c[nH]c3ccccc23)CN1Cc1cc(C(F)(F)F)cc(C(F)(F)F)c1 (centres undefined) |
| 220 nM | O=C1C(Cc2c[nH]c3ccccc23)N(C(=O)Nc2ccccc2)C(=O)N1Cc1cc(C(F)(F)F)cc(C(F)(F)F)c1 (centres undefined) |
| 203 nM | O=C1CC(Cc2c[nH]c3ccccc23)C(=O)N1Cc1cc(C(F)(F)F)cc(C(F)(F)F)c1 (centres undefined) |
| 63 nM | CNC(=O)N1C(=O)N(Cc2cc(C(F)(F)F)cc(C(F)(F)F)c2)C(=O)C1Cc1c[nH]c2ccccc12 (centres undefined) |
| 31 nM | C=CCC1(Cc2c[nH]c3ccccc23)OC(=O)N(Cc2cc(C(F)(F)F)cc(C(F)(F)F)c2)C1=O (centres undefined) |
| 11 nM | CC1(Cc2c[nH]c3ccccc23)OC(=O)N(Cc2cc(C(F)(F)F)cc(C(F)(F)F)c2)C1=O (centres undefined) |

Source: ChEMBL document CHEMBL1128268, “Tryptophan-derived NK1 antagonists: conformationally constrained heterocyclic bioisosteres of the ester linkage” (J Med Chem, 1995)
